SMILES strings stand for the structures. Some results are limits rather than exact numbers.

The first test has as its system phosphate uptake by rabbit intestinal Brush Border Membrane Vesicles (BBMV). The test is described as follows: 33PO4 uptake in rabbit intestinal BBMV (HTS), phosphate transporter inhibition in vitro. Type of test: biochemical. The settings on record: Table 3, 100 μM compound. The essentials: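 BBMV from duodenal mucosa of male New Zealand White rabbits, diluted to about 0.5-2.0 mg/mL protein. Uptake buffers carried 33PO4 at 200,000 CPM/19 μL. Controls: Na uptake buffer (max), plus 100 μM KH2PO4 pH 7.4 (mid), K uptake buffer (min).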
`O=C(NCc1cccc(C(F)(F)F)c1)c1cc(Br)ccc1NS(=O)(=O)c1ccc(OC(F)(F)F)cc1` [Compound 172]: the “% Inhib. At 100 μM” value is on record as 96%.
On to `O=C(Nc1ccccc1Cl)c1cc(Br)ccc1NS(=O)(=O)c1ccc(Cl)cc1` [Compound 173], for which the “% Inhib. At 100 μM” value is 95%.
Still for that read-out and setting: with `O=C(Nc1ccccn1)c1cc(Br)ccc1NS(=O)(=O)c1ccc(OC(F)(F)F)cc1` [Compound 174] the figure was 84%.
`COc1ccc(NC(=O)c2cc(Br)ccc2NS(=O)(=O)c2ccc(OC(F)(F)F)cc2)c([N+](=O)[O-])c1` [Compound 175]: the “% Inhib. At 100 μM” value turned out to be 78%.
Still for that read-out and setting: as for `O=S(=O)(Nc1ccccc1NS(=O)(=O)c1cc(C(F)(F)F)cc(C(F)(F)F)c1)c1cc(C(F)(F)F)cc(C(F)(F)F)c1` [Compound 176], the figure is 36%.

Staying with this test, now noted: Table 4, phosphate uptake, read-out: IC50.
As usually defined, the IC50 is the concentration that inhibits the measured activity by half. In the case of `O=C(Nc1ccc(OC(F)(F)F)cc1)Nc1ccc(Br)cc1P(=O)(O)O` [Compound 177], the IC50 was < 50 µM.
Turning to `O=C(Nc1cccc(C(F)(F)F)c1)Nc1ccc(Br)cc1P(=O)(O)O` [Compound 178], the half-inhibitory concentration (IC50) was < 50 µM.
Still for that read-out and setting: as for `O=C(Nc1ccc(Cl)c(Cl)c1)Nc1ccc(Br)cc1P(=O)(O)O` [Compound 179], the figure is < 50 µM; as for `O=C(Nc1cc(Cl)cc(Cl)c1)Nc1ccc(Br)cc1P(=O)(O)O` [Compound 180], 51 to 100 µM; as for `O=C(Nc1cc(Cl)cc(C(F)(F)F)c1)Nc1ccc(Br)cc1P(=O)(O)O` [Compound 181], 51 to 100 µM.
Regarding `O=C(Nc1cc(C(F)(F)F)cc(C(F)(F)F)c1)Nc1ccc(Br)cc1P(=O)(O)O` [Compound 182], the IC50 fell in the range of 51 to 100 µM.
Take `O=C(Nc1ccc(Br)cc1P(=O)(O)O)Nc1cccc2ccccc12` [Compound 183]: the concentration for half-maximal inhibition (IC50) was in the range of 51 to 100 µM.
With `O=C(Nc1cc(F)cc(C(F)(F)F)c1)Nc1ccc(Br)cc1P(=O)(O)O` [Compound 184], the concentration for half-maximal inhibition (IC50) lay within 101 to 500 µM.
As for `O=C(Nc1ccc(Cl)c(C(F)(F)F)c1)Nc1ccc(Br)cc1P(=O)(O)O` [Compound 185], the concentration for half-maximal inhibition (IC50) was in the range of 101 to 500 µM.
For the molecule `O=C(Nc1ccccc1-c1ccccc1)Nc1ccc(Br)cc1P(=O)(O)O` [Compound 186], the IC50 is 101 to 500 µM.
Take `O=C(Nc1ccc(Br)cc1P(=O)(O)O)Nc1cccc(Cl)c1Cl` [Compound 187]: the IC50 was 101 to 500 µM.
On the same count and under the same terms, with `O=C(Nc1ccc(F)c(C(F)(F)F)c1)Nc1ccc(Br)cc1P(=O)(O)O` [Compound 188] the figure was 101 to 500 µM; with `O=C(Nc1cc(C(F)(F)F)ccc1F)Nc1ccc(Br)cc1P(=O)(O)O` [Compound 189], 101 to 500 µM; with `Cc1ccc(NC(=O)Nc2ccc(Br)cc2P(=O)(O)O)cc1[N+](=O)[O-]` [Compound 190], 101 to 500 µM.
On the same count and under the same terms, with `CC(C)c1cccc(C(C)C)c1NC(=O)Nc1ccc(Br)cc1P(=O)(O)O` [Compound 191] the figure was 101 to 500 µM.
Consider `O=C(Nc1cccc(C(F)(F)F)c1)Nc1ccc(Br)cc1P(=O)(O)O` [Compound 192], for which the half-inhibitory concentration (IC50) lay within 101 to 500 µM.
The same measure, in the same setting: as for `O=C(Nc1cc(Cl)c(Cl)cc1Cl)Nc1ccc(Br)cc1P(=O)(O)O` [Compound 193], the figure is 101 to 500 µM; as for `O=C(Nc1ccc(F)c([N+](=O)[O-])c1)Nc1ccc(Br)cc1P(=O)(O)O` [Compound 194], 101 to 500 µM; as for `O=C(Nc1cccc(Cl)c1)Nc1ccc(Br)cc1P(=O)(O)O` [Compound 195], 501 to 1000 µM.
With `Cc1cccc(C)c1NC(=O)Nc1ccc(Br)cc1P(=O)(O)O` [Compound 196], the half-maximal inhibitory concentration (IC50) lay within 501 to 1000 µM.
The same measure, in the same setting: as for `N#Cc1cccc(NC(=O)Nc2ccc(Br)cc2P(=O)(O)O)c1` [Compound 197], the figure is 501 to 1000 µM; as for `O=C(Nc1ccc(Br)cc1P(=O)(O)O)Nc1cccc(C(F)(F)F)c1Cl` [Compound 198], 501 to 1000 µM.
Still for that read-out and setting: with `CC(=O)c1cccc(NC(=O)Nc2ccc(Br)cc2P(=O)(O)O)c1` [Compound 199] the figure was 501 to 1000 µM.
Same read-out and setting: with `O=C(Nc1ccccc1F)Nc1ccc(Br)cc1P(=O)(O)O` [Compound 200] the figure was 501 to 1000 µM; with `O=C(NCc1ccccc1)Nc1ccc(Br)cc1P(=O)(O)O` [Compound 201], 501 to 1000 µM; with `O=C(Nc1ccc(C(F)(F)F)cc1)Nc1ccc(Br)cc1P(=O)(O)O` [Compound 202], 501 to 1000 µM.
For `COc1cccc(NC(=O)Nc2ccc(Br)cc2P(=O)(O)O)c1` [Compound 203], the IC50 lay in the range of 501 to 1000 µM.
For the molecule `O=C(Nc1ccc(Br)cc1P(=O)(O)O)Nc1c(F)cccc1F` [Compound 204], the concentration for half-maximal inhibition (IC50) fell in the range of 1000 to 1500 µM.
The same measure, in the same setting: as for `O=C(Nc1ccccc1)Nc1ccc(Br)cc1P(=O)(O)O` [Compound 205], the figure is 1000 to 1500 µM; as for `Cc1cc(C)cc(NC(=O)Nc2ccc(Br)cc2P(=O)(O)O)c1` [Compound 206], 1000 to 1500 µM; as for `Cc1ccc(NC(=O)Nc2ccc(Br)cc2P(=O)(O)O)cc1` [Compound 207], 1000 to 1500 µM.
As for `CCOC(=O)c1cccc(NC(=O)Nc2ccc(Br)cc2P(=O)(O)O)c1` [Compound 208], the half-inhibitory concentration (IC50) lay within 1000 to 1500 µM.
For `CC(NC(=O)Nc1ccc(Br)cc1P(=O)(O)O)c1cccc2ccccc12` (stereo not shown) [Compound 209], the IC50 is > 1500 µM.
On the same count and under the same terms, as for `CC(C)c1ccc(NC(=O)Nc2ccc(Br)cc2P(=O)(O)O)cc1` [Compound 210], the figure is > 1500 µM.
Still for that read-out and setting: as for `O=C(Nc1cccc(Br)c1)Nc1ccc(Br)cc1P(=O)(O)O` [Compound 211], the figure is > 1500 µM.
Take `CCOc1ccc(NC(=O)Nc2ccc(Br)cc2P(=O)(O)O)cc1` [Compound 212]: the half-maximal inhibitory concentration (IC50) is > 1500 µM.
Take `O=C(Nc1ccc(Cl)cc1)Nc1ccc(Br)cc1P(=O)(O)O` [Compound 213]: the concentration for half-maximal inhibition (IC50) is > 1500 µM.

The same test, now with this note: Table 5, 100 μM compound.
As to `O=C(Nc1cccc(C(F)(F)F)c1)Nc1cccc(C(F)(F)F)c1` [Compound 214], the “% Inhib. at 100 μM” value was 100%.
For the molecule `O=C(Nc1cccc(C(F)(F)F)c1)Nc1cccc(Cl)c1Cl` [Compound 215], the “% Inhib. at 100 μM” value is given as 96%.
Consider `O=C(Nc1cccc(C(F)(F)F)c1)Nc1ccc(Cl)c(Cl)c1` [Compound 216], for which the “% Inhib. at 100 μM” value was 95%.
On the same count and under the same terms, with `O=C(Nc1cc(Cl)cc(Cl)c1)Nc1cccc(C(F)(F)F)c1` [Compound 217] the figure was 95%; with `O=C(Nc1cccc(C(F)(F)F)c1)Nc1c(Cl)cccc1Cl` [Compound 218], 93%; with `O=C(Nc1cccc(Cl)c1)Nc1cccc(C(F)(F)F)c1` [Compound 219], 92%.
With `O=C(Nc1cccc(C(F)(F)F)c1)Nc1cc(Cl)ccc1Cl` [Compound 220], the “% Inhib. at 100 μM” value worked out at 92%.
Turning to `O=C(NCc1ccc(Cl)c(Cl)c1)Nc1ccc(Br)cc1P(=O)([O-])[O-].[Na+].[Na+]` [Compound 221], the “% Inhib. at 100 μM” value stood at 91%.
Still for that read-out and setting: as for `O=C(Nc1cccc(C(F)(F)F)c1)Nc1ccc(F)c([N+](=O)[O-])c1` [Compound 222], the figure is 88%; as for `O=C(Nc1cccc(C(F)(F)F)c1)Nc1ccccc1Cl` [Compound 223], 85%.
Same read-out and setting: with `O=C(Nc1cccc(C(F)(F)F)c1)Nc1ccc(Cl)cc1Cl` [Compound 224] the figure was 85%; with `O=C(Nc1cccc(C(F)(F)F)c1)N1CCc2ccccc21` [Compound 225], 80%; with `CCOP(=O)(OCC)c1cc(Br)ccc1NC(=O)Nc1cccc(C(F)(F)F)c1` [Compound 226], 77%.
As to `O=C(Nc1ccc(Br)cc1)Nc1cccc(C(F)(F)F)c1` [Compound 227], the “% Inhib. at 100 μM” value is given as 75%.
Same read-out and setting: as for `O=C(Nc1ccc(Cl)cc1)Nc1cccc(C(F)(F)F)c1` [Compound 228], the figure is 74%.
For `O=C(Nc1cccc(F)c1)Nc1ccc(Br)cc1P(=O)(O)O` [Compound 229], the “% Inhib. at 100 μM” value is reported as 73%.
The same measure, in the same setting: with `O=C(Nc1cccc(C(F)(F)F)c1)Nc1ccc(Br)cc1P(=O)(O)O` [Compound 230] the figure was 49%.

The test is the same for the next values; noted with them: Table 6, 100 μM compound.
Regarding `COc1ccc(-c2cc(-c3ccco3)on2)cc1` [Compound 231], the “% Inhib. at 100 μM” value is reported as 74%.
On the same count and under the same terms, as for `c1ccc(Oc2ccc(-c3cc(-c4ccco4)on3)cc2)cc1` [Compound 232], the figure is 72%.
On to `c1ccc(Oc2ccc(C3=NOC(c4ccco4)C3)cc2)cc1` (stereo not shown) [Compound 233], for which the “% Inhib. at 100 μM” value is reported as 68%.
On to `Oc1ccc(C2=NOC(c3ccc(F)cc3)C2)cc1` (stereo not shown) [Compound 234], for which the “% Inhib. at 100 μM” value came out at 62%.
On the same count and under the same terms, as for `Fc1ccc(C2CC(c3ccc(Oc4ccccc4)cc3)=NO2)cc1` (stereo not shown) [Compound 235], the figure is 54%; as for `Oc1ccc(-c2cc(-c3ccco3)on2)cc1` [Compound 236], 41%; as for `COc1ccc(C2=NOC(c3ccco3)C2)cc1` (stereo not shown) [Compound 237], 40%.
For `Cn1nc(-c2cc(Cl)cc(Cl)c2O)cc1-c1ccc(Br)cc1` [Compound 238], the “% Inhib. at 100 μM” value worked out at 16%.

The same test, now with this note: Table 7, phosphate uptake, read-out: IC50.
As to `COc1ccc(-c2cc(-c3cccc(F)c3)n(C)n2)cc1` [Compound 239], the IC50 lay within 101 to 500 µM.
Consider `COc1ccc(-c2cc(-c3ccco3)n(C)n2)cc1` [Compound 240], for which the IC50 fell in the range of 101 to 500 µM.
Take `Cn1nc(-c2ccc(O)cc2)cc1-c1cccc(F)c1` [Compound 241]: the IC50 was in the range of 101 to 500 µM.
On the same count and under the same terms, as for `Cn1nc(-c2ccc(O)cc2)cc1-c1ccco1` [Compound 242], the figure is > 1500 µM; as for `Cn1nc(-c2ccc(Oc3ccccc3)cc2)cc1-c1cccc(F)c1` [Compound 243], > 1500 µM; as for `Cn1nc(-c2ccc(Oc3ccccc3)cc2)cc1-c1ccco1` [Compound 244], > 1500 µM.

Still in this test, the particulars now being: Table 8, 100 μM compound.
Take `CCOP(=O)(OCC)c1cc(Br)ccc1NC(=O)c1ccc(Br)cc1` [Compound 245]: the “% Inhib. at 100 μM” value was 67%.
`CCCCOc1ccc(C(=O)Nc2ccc(Br)cc2P(=O)(OCC)OCC)cc1` [Compound 246]: the “% Inhib. at 100 μM” value is given as 57%.
For `CCCCCCCc1ccc(C(=O)Nc2ccc(Br)cc2P(=O)(OCC)OCC)cc1` [Compound 247], the “% Inhib. at 100 μM” value was 53%.
